Laboratory results as given in the NIST ThermoML archive (doi:10.1016/j.jct.2016.06.023).
± gives the expanded uncertainty stated by the source.

Test: mn = molality of the nth substance listed, in mol/kg
Conditions: 101.3 kPa, Liquid, Vibrating tube method

O=C(O)CC(=O)O [propanedioic acid] + O
mass density [kg/m3]
Conditions	313.15 K	318.15 K	323.15 K	328.15 K	333.15 K	338.15 K	343.15 K
m1 = 0.01001	992.67 ± 0.4	990.67 ± 0.4	988.48 ± 0.4	986.12 ± 0.4	983.63 ± 0.4	980.99 ± 0.4	978.22 ± 0.4
m1 = 0.02001	993.03 ± 0.4	991.04 ± 0.4	988.85 ± 0.4	986.5 ± 0.4	984.01 ± 0.4	981.37 ± 0.4	978.59 ± 0.4
m1 = 0.03	993.37 ± 0.4	991.39 ± 0.4	989.19 ± 0.4	986.83 ± 0.4	984.34 ± 0.4	981.69 ± 0.4	978.9 ± 0.4
m1 = 0.03962	993.74 ± 0.4	991.75 ± 0.4	989.54 ± 0.4	987.17 ± 0.4	984.68 ± 0.4	982.03 ± 0.4	979.24 ± 0.4
m1 = 0.04998	994.12 ± 0.4	992.09 ± 0.4	989.92 ± 0.4	987.55 ± 0.4	985.05 ± 0.4	982.41 ± 0.4	979.6 ± 0.4
m1 = 0.05936	994.45 ± 0.4	992.44 ± 0.4	990.24 ± 0.4	987.86 ± 0.4	985.36 ± 0.4	982.72 ± 0.4	979.92 ± 0.4
m1 = 0.06926	994.8 ± 0.4	992.8 ± 0.4	990.58 ± 0.4	988.21 ± 0.4	985.69 ± 0.4	983 ± 0.4	980.22 ± 0.4
m1 = 0.07949	995.16 ± 0.4	993.16 ± 0.4	990.94 ± 0.4	988.56 ± 0.4	986.05 ± 0.4	983.39 ± 0.4	980.58 ± 0.4
m1 = 0.08906	995.51 ± 0.4	993.49 ± 0.4	991.26 ± 0.4	988.89 ± 0.4	986.37 ± 0.4	983.68 ± 0.4	980.9 ± 0.4
m1 = 0.09935	995.86 ± 0.4	993.83 ± 0.4	991.63 ± 0.4	989.26 ± 0.4	986.72 ± 0.4	984.02 ± 0.4	981.18 ± 0.4
m1 = 0.1984	999.32 ± 0.4	997.27 ± 0.4	995 ± 0.4	992.58 ± 0.4	990.02 ± 0.4	987.31 ± 0.4	984.49 ± 0.4
m1 = 0.2977	1002.76 ± 0.4	1000.66 ± 0.4	998.36 ± 0.4	995.89 ± 0.4	993.31 ± 0.4	990.55 ± 0.4	987.71 ± 0.4
m1 = 0.404	1006.4 ± 0.4	1004.17 ± 0.4	1001.82 ± 0.4	999.32 ± 0.4	996.78 ± 0.4	993.95 ± 0.4	991.05 ± 0.4
m1 = 0.5055	1009.9 ± 0.4	1007.57 ± 0.4	1005.17 ± 0.4	1002.63 ± 0.4	999.91 ± 0.4	997.16 ± 0.4	994.29 ± 0.4
m1 = 0.6055	1013.17 ± 0.4	1010.78 ± 0.4	1008.36 ± 0.4	1005.78 ± 0.4	1003.1 ± 0.4	1000.24 ± 0.4	997.39 ± 0.4
m1 = 0.6936	1016.02 ± 0.4	1013.61 ± 0.4	1011.15 ± 0.4	1008.54 ± 0.4	1005.81 ± 0.4	1002.93 ± 0.4	1000.21 ± 0.4
m1 = 0.7926	1019.25 ± 0.4	1016.73 ± 0.4	1014.23 ± 0.4	1011.64 ± 0.4	1008.99 ± 0.4	1006 ± 0.4	1002.97 ± 0.4
m1 = 0.891	1022.41 ± 0.4	1019.67 ± 0.4	1017.35 ± 0.4	1014.68 ± 0.4	1011.89 ± 0.4	1008.94 ± 0.4	1005.93 ± 0.4
m1 = 0.9895	1025.39 ± 0.4	1022.8 ± 0.4	1020.22 ± 0.4	1017.49 ± 0.4	1014.63 ± 0.4	1011.16 ± 0.4	1008.49 ± 0.4
